Assay results reported in patent US20090209550A1, “SUBSTITUTED TRIAZOLOPYRIDINES” (AUSPEX PHARMACEUTICALS, INC., priority 2008, published 2009).
Structures can show the parent of a compound that is named as a salt.

Assay: In vitro liver microsomal stability assay
Type: in vitro ADME
Details: '+' marks the bin; human liver microsomes 1 mg per mL protein, NADPH-generating system, 1 μM, 37° C.; compared to non-isotopically enriched drug
Method: Liver microsomal stability assays are conducted at 1 mg per mL liver microsome protein with an NADPH-generating system in 2% NaHCO3 (2.2 mM NADPH, 25.6 mM glucose 6-phosphate, 6 units per mL glucose 6-phosphate dehydrogenase and 3.3 mM MgCl2). Test compounds are prepared as solutions in 20% acetonitrile-water and added to the assay mixture (final assay concentration 1 μM) and incubated at 37° C. Final concentration of acetonitrile in the assay should be <1%. Aliquots (50 μL) are taken out at times 0, 0.25, […], and 1 hours, and diluted with ice cold acetonitrile (200 μL) to stop the reactions. Samples are centrifuged at 12,000 RPM for 10 min to precipitate proteins. Supernatants are transferred to micro centrifuge tubes and stored for LC/MS/MS analysis of the degradation half-life of the test compounds.

% increase of HLM degradation half-life, 0%-50%	Structure (SMILES)	further results
	O=c1n(CCCN2CCN(c3cccc(Cl)c3)CC2)nc2ccccn12 [Example 1, 2-(3-(4-(3-Chlorophenyl)piperazin-1-yl)propyl)-[1,2,4]triazolo[4,3-a]pyridin-3(2H)one, reference compound]	% increase of HLM degradation half-life, 50%-150%: + (50%-150%)
	[2H]C([2H])(CCn1nc2ccccn2c1=O)N1CCN(c2cccc(Cl)c2)CC1 [Example 2, 2-(3-(4-(3-Chlorophenyl)piperazin-1-yl)propyl-3,3-d2)-[1,2,4]triazolo[4,3-a]pyridin-3(2H)one hydrochloride]	% increase of HLM degradation half-life, >150%: + (>150%)
+ (0%-50%)	[2H]C([2H])(CCN1CCN(c2cccc(Cl)c2)CC1)n1nc2ccccn2c1=O [Example 3, 2-(3-(4-(3-Chlorophenyl)piperazin-1-yl)propyl-1,1-d2)-[1,2,4]triazolo[4,3-a]pyridin-3(2H)one hydrochloride]	
+ (0%-50%)	[2H]C([2H])(CC([2H])([2H])n1nc2ccccn2c1=O)N1CCN(c2cccc(Cl)c2)CC1 [Example 4, 2-(3-(4-(3-Chlorophenyl)piperazin-1-yl)propyl-1,1,3,3-d4)-[1,2,4]triazolo[4,3-a]pyridin-3(2H)one hydrochloride]	
+ (0%-50%)	[2H]C([2H])(N1CCN(c2cccc(Cl)c2)CC1)C([2H])([2H])C([2H])([2H])n1nc2ccccn2c1=O [Example 5, 2-(3-(4-(3-Chlorophenyl)piperazin-1-yl)propyl-1,1,2,2,3,3-d6)-[1,2,4]triazolo[4,3-a]pyridin-3(2H)one hydrochloride]	
